Experimental data: the NIST ThermoML archive (doi:10.1016/j.jct.2018.11.010)

Test: xn = mol fraction of the nth substance listed
Settings: Liquid, Vibrating tube method

CCCCCCCO [heptan-1-ol] + CCCCOCCCC
mass density [kg/m3]
Settings	x2 = 0	x2 = 0.1488	x2 = 0.3201	x2 = 0.4944	x2 = 0.7014	x2 = 0.8534
313.15 K, 50000 kPa	837.2	829.7	821.1	812.9	803	796.3
313.15 K, 55000 kPa	839.7	832.3	823.8	815.7	805.9	799.3
313.15 K, 60000 kPa	842.1	834.8	826.4	818.4	808.7	802.2
313.15 K, 65000 kPa	844.4	837.2	828.9	821	811.5	804.9
313.15 K, 70000 kPa	846.7	839.6	831.3	823.5	814.1	807.7
313.15 K, 80000 kPa	851.1	844	836	828.4	819.1	812.9
313.15 K, 90000 kPa	855.3	848.4	840.6	833.2	824	817.9
313.15 K, 100000 kPa	859.3	852.5	844.8	837.5	828.7	822.6
313.15 K, 110000 kPa	863.2	856.6	849.1	841.8	833.2	827.2
313.15 K, 120000 kPa	867	860.4	853	845.9	837.3	831.5
313.15 K, 130000 kPa	870.6	864.2	856.9	849.9	841.4	835.7
313.15 K, 140000 kPa	874.2	867.8	860.6	853.7	845.4	839.8
333.15 K, 100 kPa	793.3	783.8	772.9	762.5	749.9	741.3
333.15 K, 1000 kPa	794	784.6	773.7	763.4	750.8	742.3
333.15 K, 5000 kPa	797.1	787.8	777.2	767.1	754.8	746.5
333.15 K, 10000 kPa	800.7	791.7	781.4	771.5	759.6	751.4
333.15 K, 15000 kPa	804.3	795.4	785.3	775.8	764.1	756.1
333.15 K, 20000 kPa	807.7	798.9	789.1	779.6	768.3	760.5
333.15 K, 25000 kPa	810.8	802.3	792.6	783.4	772.2	764.7
333.15 K, 30000 kPa	813.9	805.5	796	787	776.1	768.6
333.15 K, 35000 kPa	816.9	808.7	799.3	790.4	779.7	772.4
333.15 K, 40000 kPa	819.8	811.7	802.5	793.7	783.2	776.1
333.15 K, 45000 kPa	822.4	814.5	805.5	796.9	786.5	779.5
333.15 K, 50000 kPa	825.2	817.4	808.5	800	789.8	782.9
333.15 K, 55000 kPa	827.8	820.1	811.3	802.9	792.9	786
333.15 K, 60000 kPa	830.3	822.7	814.1	805.8	795.9	789.2
333.15 K, 65000 kPa	832.9	825.3	816.8	808.6	798.9	792.2
333.15 K, 70000 kPa	835.3	827.9	819.5	811.4	801.7	795.1
333.15 K, 80000 kPa	839.9	832.7	824.4	816.6	807.1	800.7
333.15 K, 90000 kPa	844.5	837.4	829.3	821.6	812.3	806
333.15 K, 100000 kPa	848.7	841.7	833.8	826.3	817.2	811.1
333.15 K, 110000 kPa	852.8	845.9	838.2	830.8	821.9	815.9
333.15 K, 120000 kPa	856.8	850	842.3	835.1	826.4	820.5
333.15 K, 130000 kPa	860.5	853.9	846.4	839.3	830.7	824.8
333.15 K, 140000 kPa	864.3	–	–	–	–	–
